In US9801850B2, “Antibacterial agent” (OSAKA UNIVERSITY, priority 2009, dated 2017):
Converted amounts (≈) assume the structure as drawn.

What was measured:
Assay type in all cases: cell-based
[1] = system: Escherichia coli MG1655 ΔacrEF; experiment: MIC, influence of multidrug efflux pump (Example 5)
Description: (§1) Using the EGCG derivatives, the minimum inhibitory concentration (MIC) was measured in the same manner as described in Section (2) of Example 2, except that Escherichia coli MG1655 (hereinafter referred to as a wild-type strain) and gene deletion strains of Escherichia coli MG1655 were used as the bacteria. The gene deletion strains were: strains obtained by deleting the efflux pump genes, namely, acrB, acrD, and acrEF, respectively, in Escherichia coli MG1655 (ΔacrD, ΔacrEF, and ΔacrB); and a strain obtained by deleting the outer membrane protein tolC gene that couples to proteins encoded by the efflux pump genes (ΔtolC).
(§2) As Comparative Example 5, the minimum inhibitory concentration (MIC) was measured in the same manner as in Example 5, except that EGCG was used instead of the EGCG derivative.

[2] = system: Escherichia coli MG1655 ΔacrD; experiment: as above
Description: as §1, §2

[3] = system: Escherichia coli MG1655 (wild type); experiment: as above
Description: as §1, §2

[4] = system: Escherichia coli MG1655 ΔacrB; experiment: as above
Description: as §1, §2

[5] = system: Escherichia coli MG1655 ΔtolC; experiment: as above
Description: as §1, §2

[6] = system: fungi; experiment: Antifungal effect over the fungi of Table 8; details: respective types of fungi of Table 8
Description: (§3) Regarding the respective type strains shown in Tables 7 and 8 below, the MIC measurement was performed using the antibacterial agent solutions of Example 2 in the same manner as described in Section (2) of Example 1, except for the following. The antibacterial agent solutions were prepared by dissolving the EGCG derivatives of Example 2 in 100% DMSO and then diluting the resultant mixtures with sterile distilled water. The respective strains were derived from ATCC or NCTC. As Moraxella catarrhalis and Aspergillus fumigatus, clinical isolates thereof without an acquired resistance mechanism were used. For nutrient-rich bacteria, namely, Streptococcus pneumoniae ATCC49619, Streptococcus pyogenes ATCC19615, Streptococcus agalactiae ATCC13813, Moraxella catarrhalis, and Haemophilis influenzae ATCC49766, Strepto Haemo supplement (Eiken Chemical Co., Ltd.) was added to media for culturing them. The MIC measurement with respect to fungi was carried out by a broth microdilution method using a RPMI1640/MOPS (pH 7.0) medium in accordance with CLSI guidelines. About 2×10^3 cells/ml of fungi were inoculated to the medium. After the culture at 35° C. for 24 to 48 hours, the MIC was determined. Also, regarding the antibacterial agent solution of Comparative Example 2, the MIC was measured in the same manner.

[7] = system: Pseudomonas aeruginosa ATCC7700; experiment: Antibacterial spectrum MIC (Table 7)
Description: (§4) Methicillin-susceptible Staphylococcus aureus (MSSA) NCTC8325 and methicillin-resistant Staphylococcus aureus (MRSA) ATCC43300 were used as bacteria. The bacteria of each type were cultured using Mueller-Hinton Broth (MH-broth, Difco) as a medium. Then, the minimum inhibitory concentration (MIC) of each of the EGCG derivatives was measured by a broth microdilution method in accordance with the Clinical and Laboratory Standards Institute (CLSI) guidelines (hereinafter the same).
(§5) First, each of the EGCG derivatives was dissolved in 100% dimethyl sulfoxide (DMSO, Wako Pure Chemical Industries, Ltd.) so that the concentration thereof became 5120 μg/ml. The resultant solution was diluted with DMSO or sterile distilled water so as to prepare two-fold dilution series of antibacterial agent solutions. […] Each of these antibacterial agent solutions was dispensed to wells of a 96-well plate. The concentration of the EGCG derivative in the antibacterial agent solution dispensed to the wells was set to be 10 times as high as the final concentration. On the other hand, the bacteria were cultured in the MH-broth at 37° C. overnight, and the thus-obtained pre-culture solution was diluted with a new MH-broth so that the concentration thereof in the MH-broth became 10^−4 (10^4-fold dilution), thus preparing a bacterial culture solution of about 1×10^5 CFU/ml (CFU: Colony Forming Unit, the number of viable cells). The bacterial culture solution was further added to each well, and the mixture was cultured at 37° C. for 18 hours. The ratio (volume ratio) between the antibacterial agent solution and the bacterial culture solution added to each well was set to 1:9 (the antibacterial agent solution:the bacterial culture solution), and the volume of the mixture of them per well was set to 100 μl in total. The final concentration of the EGCG derivative in the mixture was set to 8 μg/ml to 512 μg/ml, and the number of viable cells in the mixture was set to about 1×10^5 CFU/ml. Then, after the completion of the culture, the MIC was determined. Also, the turbidity (OD600 nm) was measured using a plate reader so as to identify minor differences.
as §3

[8] = system: Methicillin-susceptible Staphylococcus aureus (MSSA) NCTC8325; experiment: MIC, broth microdilution (Example 1); details: MH-broth, 37° C., 18 hours
Description: as §4, §5
As Comparative Example 1, the same procedures as in Example 1 were performed, except that unsubstituted EGCG was used as an antibacterial agent instead of the EGCG derivatives of Example 1. Furthermore, as a control, the same procedures as in Example 1 were performed, except that sterile distilled water, 100% DMSO, or 50% DMSO was used instead of the antibacterial agent solutions containing the EGCG derivatives.

[9] = system: Proteus vulgaris ATCC13315; experiment: Antibacterial spectrum MIC (Table 7)
Description: as §4, §5, §3

Row | Molecule | MIC [1] | MIC [2] | MIC [3] | MIC [4] | MIC [5] | antifungal effect [6] | MIC [7] | MIC [8] | MIC [9]
1 | EGCG-α-linoleate [EGCG-C18TE] | >128 µg/mL | >128 µg/mL | >128 µg/mL | 64 µg/mL | 64 µg/mL | highest antifungal effect | – | – | –
2 | EGCG-stearate [EGCG-C18] | – | – | – | – | – | – | 32 µg/mL | 16 µg/mL | –
3 | EGCG-palmitate [EGCG-C16] | >128 µg/mL | >128 µg/mL | >128 µg/mL | 64 µg/mL | 64 µg/mL | – | – | 8 µg/mL | –
4 | EGCG-palmitoleate [EGCG-C16E] | >128 µg/mL | >128 µg/mL | >128 µg/mL | 64 µg/mL | 64 µg/mL | highest antifungal effect | – | – | –
5 | EGCG-linolate [EGCG-C18DE] | – | – | – | – | – | – | – | – | 32 µg/mL
6 | EGCG-dioctanoate [EGCG-C8×2] | >128 µg/mL | >128 µg/mL | >128 µg/mL | 64 µg/mL | 32 µg/mL | – | – | – | –
7 | O=C(O[C@@H]1Cc2c(O)cc(O)cc2O[C@@H]1c1cc(O)c(O)c(O)c1)c1cc(O)c(O)c(O)c1 [EGCG, Epigallocatechin gallate, reference compound] | >256 µg/mL | >256 µg/mL | >256 µg/mL | 128 µg/mL (≈ 279 µM) | 128 µg/mL (≈ 279 µM) | – | 64 µg/mL (≈ 140 µM) | 128 µg/mL (≈ 279 µM) | 64 µg/mL (≈ 140 µM)
